Reference: patent US20080261936A1, “METHODS OF REDUCING THE BODY WEIGHT OF A SUBJECT BY ADMINISTERING A FATTY ACID ESTER OF AN ESTROGEN OR ESTROGEN DERIVATIVE IN AN OIL AND COMPOSITIONS CONTAINING THE SAME” (Manhattan Pharmaceuticals, Inc., priority 2006, published 2008)
Values after ≈ are worked out from the molar mass of the structure shown. Values joined by “and” are separate entries in the source; they are usually repeats but may differ in a detail not shown here. Equal values may be shown once.

What was measured:
Format in all cases: physicochemical
[1] = Compatibility/stability of oleoyl-estrone in oil systems (appearance/color, potency, related substances); conditions: for Purity Assay / Mean Purity Assay: in SAFFLOWER
Method: The compatibility of oleoyl-estrone in various oil systems was also assessed. The respective stability of oleoyl-estrone in various oils was assessed following storage at (A) 25° C./60% and relative humidity (RH), (B) 40° C./75% RH, (C) 50° C. and (D) 60° C. in canola oil, safflower oil, Captex and a 2:1 Captex: Labrafil mixture. The stability test methods include appearance/color, potency, and related substances (e.g. impurities or degradant in the oleoyl-estrone and oil mixture).

[2] = Oil evaluation: solubility behavior of oleoyl-estrone, 60 mg/g in single oils; conditions: for solubility at 96 h: oil or lipid, after 96 hr, more oil added
Method: An oil evaluation was done to determine the solubility behavior of oleoyl-estrone as a function of type of oil, concentration and temperature. The solubility of oleoyl-estrone was evaluated at concentrations of 60 mg/g and 200 mg/g. […]

[3] = Solubility of oleoyl-estrone in binary oil blends, 200 mg/g at room temperature
Method: These four types of oils were then evaluated in binary blend systems with an oleoyl-estrone concentration of 200 mg/g at room temperature for 24 hours and 96 hours.

[4] = in the mixture of Captex and Labrafil stored at 50° C. and 60° C., three weeks
[5] = 60 mg/g in Canola at RT (about 22° C.)
[6] = 60 mg/g in Captex 300-6C at RT (about 22° C.)
[7] = 60 mg/g in Captex 300 EP at RT (about 22° C.)
[8] = 60 mg/g in Corn at RT (about 22° C.)
[9] = 60 mg/g in Labrafac at RT (about 22° C.)
[10] = 60 mg/g in Labrasol at RT (about 22° C.)
[11] = 60 mg/g in Olive at RT (about 22° C.)
[12] = 60 mg/g in Safflower at RT (about 22° C.)
[13] = 60 mg/g in Sesame at RT (about 22° C.)
[14] = 60 mg/g in Soybean at RT (about 22° C.)
[15] = 200 mg/g in Canola:Labrafil (2:1) at RT (about 22° C.)
[16] = 200 mg/g in Captex 300 EP:Labrafil (2:1) at RT (about 22° C.)
[17] = 200 mg/g in Safflower:Labrafil (2:1) at RT (about 22° C.)

**Q.** With `CCCCCCCC/C=C\CCCCCCCC(=O)Oc1ccc2c(c1)CC[C@@H]1[C@@H]2CC[C@]2(C)C(=O)CC[C@@H]12` [oleoyl-estrone, [3(Z)]-3-[(1-oxo-9-octadecenyl)oxy]-estra-1,3,5(10)-trien-17-one] as the compound, how does the “Purity Assay” value ([1]; One Week 25° C./60% RH) read?
**A.** 99.4% and 98.7%

**Q.** And the “Mean Purity Assay” value ([1]; One Week 40° C./75% RH)?
**A.** 100.9%

**Q.** And the “Purity Assay” value ([1]; One Week 40° C./75% RH)?
**A.** 102.6% and 99.2%

**Q.** And the “Mean Purity Assay” value ([1]; One Week 50° C.)?
**A.** 100.7%

**Q.** What about the “Purity Assay” value ([1]; One Week 50° C.) of the same compound?
**A.** 100.9% and 100.4%

**Q.** What about the “Mean Purity Assay” value ([1]; One Week 60° C.) of the same compound?
**A.** 100.8%

**Q.** What about the “Purity Assay” value ([1]; One Week 60° C.) of the same compound?
**A.** 99.5% and 102.0%

**Q.** And the “Mean Purity Assay” value ([1]; Three Weeks 25° C./60% RH)?
**A.** 105.7%

**Q.** What about the “Purity Assay” value ([1]; Three Weeks 25° C./60% RH) of the same compound?
**A.** 108.1% and 103.3%

**Q.** And the “Mean Purity Assay” value ([1]; Three Weeks 40° C./75% RH)?
**A.** 104.6%

**Q.** And the “Purity Assay” value ([1]; Three Weeks 40° C./75% RH)?
**A.** 102.7% and 106.5%

**Q.** What about the “Mean Purity Assay” value ([1]; Three Weeks 50° C.) of the same compound?
**A.** 98.7%

**Q.** And the “Purity Assay” value ([1]; Three Weeks 50° C.)?
**A.** 101.0% and 96.4%

**Q.** And the “Mean Purity Assay” value ([1]; Three Weeks 60° C.)?
**A.** 105.1%

**Q.** What about the “Purity Assay” value ([1]; Three Weeks 60° C.) of the same compound?
**A.** 103.7% and 106.5%

**Q.** What about the “Mean Purity Assay” value ([1]; Time Zero) of the same compound?
**A.** 103.8%

**Q.** What about the “Purity Assay” value ([1]; Time Zero) of the same compound?
**A.** 102.1% and 104.8% and 104.7% and 103.5%

**Q.** And the “Mean Purity Assay” value ([1]; Two Weeks 25° C./60% RH)?
**A.** 101.6%

**Q.** What about the “Purity Assay” value ([1]; Two Weeks 25° C./60% RH) of the same compound?
**A.** 105.1% and 98.1%

**Q.** What about the “Mean Purity Assay” value ([1]; Two Weeks 40° C./75% RH) of the same compound?
**A.** 100.2%

**Q.** What about the “Purity Assay” value ([1]; Two Weeks 40° C./75% RH) of the same compound?
**A.** 98.1% and 102.3%

**Q.** And the “Mean Purity Assay” value ([1]; Two Weeks 50° C.)?
**A.** 96.7%

**Q.** What about the “Purity Assay” value ([1]; Two Weeks 50° C.) of the same compound?
**A.** 98.3% and 95.1%

**Q.** And the “Mean Purity Assay” value ([1]; Two Weeks 60° C.)?
**A.** 98.1%

**Q.** What about the “Purity Assay” value ([1]; Two Weeks 60° C.) of the same compound?
**A.** 99.2% and 96.9%

**Q.** And the Degradation of oleoyl-estrone ([1]; in canola oil, safflower oil or Captex, three weeks at 25° C./60% RH, 40° C./75% RH, 50° C. and 60° C.)?
**A.** no measurable degradation

**Q.** And the Degradation of oleoyl-estrone [1, 4]?
**A.** measurable degradation

**Q.** What about the Levels of estrone [1, 4] of the same compound?
**A.** increased significantly

**Q.** And the “Solubility Cycled to 5° C. after 96 hr” value ([2]; 60 mg/g in Canola)?
**A.** Dissolved

**Q.** And the “Solubility After 24 hr” value [2, 5]?
**A.** Dissolved

**Q.** And the “Solubility After 96 hr” value [2, 5]?
**A.** Dissolved

**Q.** And the “Solubility Cycled to 5° C. after 96 hr” value ([2]; 60 mg/g in Captex 300-6C)?
**A.** Dissolved

**Q.** And the “Solubility After 24 hr” value [2, 6]?
**A.** Dissolved

**Q.** And the “Solubility After 96 hr” value [2, 6]?
**A.** Dissolved

**Q.** And the “Solubility Cycled to 5° C. after 96 hr” value ([2]; 60 mg/g in Captex 300 EP)?
**A.** Dissolved

**Q.** What about the “Solubility After 24 hr” value [2, 7] of the same compound?
**A.** Dissolved

**Q.** What about the “Solubility After 96 hr” value [2, 7] of the same compound?
**A.** Dissolved

**Q.** What about the “Solubility Cycled to 5° C. after 96 hr” value ([2]; 60 mg/g in Corn) of the same compound?
**A.** Dissolved

**Q.** And the “Solubility After 24 hr” value [2, 8]?
**A.** Dissolved

**Q.** What about the “Solubility After 96 hr” value [2, 8] of the same compound?
**A.** Dissolved

**Q.** And the “Solubility Cycled to 5° C. after 96 hr” value ([2]; 60 mg/g in Labrafac)?
**A.** Dissolved

**Q.** And the “Solubility After 24 hr” value [2, 9]?
**A.** Dissolved

**Q.** And the “Solubility After 96 hr” value [2, 9]?
**A.** Dissolved

**Q.** And the “Solubility Cycled to 5° C. after 96 hr” value ([2]; 60 mg/g in Labrafil 1944 CS)?
**A.** Dissolved

**Q.** And the “Solubility After 96 hr” value ([2]; 60 mg/g in Labrafil 1944 CS at RT (about 22° C.))?
**A.** NOT Dissolved more oil

**Q.** What about the “Solubility Cycled to 5° C. after 96 hr” value ([2]; 60 mg/g in Labrafil M 125CS) of the same compound?
**A.** Dissolved

**Q.** What about the “Solubility After 96 hr” value ([2]; 60 mg/g in Labrafil M 125CS at RT (about 22° C.)) of the same compound?
**A.** NOT Dissolved more oil

**Q.** And the “Solubility After 24 hr” value [2, 10]?
**A.** Dissolved

**Q.** What about the “Solubility After 96 hr” value [2, 10] of the same compound?
**A.** Dissolved

**Q.** And the “Solubility Cycled to 5° C. after 96 hr” value ([2]; 60 mg/g in Olive)?
**A.** Dissolved

**Q.** What about the “Solubility After 24 hr” value [2, 11] of the same compound?
**A.** Dissolved

**Q.** What about the “Solubility After 96 hr” value [2, 11] of the same compound?
**A.** Dissolved

**Q.** And the “Solubility Cycled to 5° C. after 96 hr” value ([2]; 60 mg/g in Safflower)?
**A.** Dissolved

**Q.** And the “Solubility After 24 hr” value [2, 12]?
**A.** Dissolved

**Q.** What about the “Solubility After 96 hr” value [2, 12] of the same compound?
**A.** Dissolved

**Q.** What about the “Solubility Cycled to 5° C. after 96 hr” value ([2]; 60 mg/g in Sesame) of the same compound?
**A.** Dissolved

**Q.** And the “Solubility After 24 hr” value [2, 13]?
**A.** Dissolved

**Q.** And the “Solubility After 96 hr” value [2, 13]?
**A.** Dissolved

**Q.** What about the “Solubility Cycled to 5° C. after 96 hr” value ([2]; 60 mg/g in Soybean) of the same compound?
**A.** Dissolved

**Q.** And the “Solubility After 24 hr” value [2, 14]?
**A.** Dissolved

**Q.** What about the “Solubility After 96 hr” value [2, 14] of the same compound?
**A.** Dissolved

**Q.** What about the solubility at 96 h ([2]; Labrafil 1944 CS (oil), in Labrafil 1944 CS at RT (about 22° C.)) of the same compound?
**A.** ~5000 µg/mL (≈ 9.35 mM)

**Q.** What about the solubility at 96 h ([2]; Labrafil M 125CS (oil), in Labrafil M 125CS at RT (about 22° C.)) of the same compound?
**A.** ≤ 3000 µg/mL

**Q.** And the “Notes (phase separation)” value [3, 15]?
**A.** No phase separation

**Q.** And the “Solubility After 24 hr” value [3, 15]?
**A.** Dissolved

**Q.** And the “Solubility After 96 hr” value [3, 15]?
**A.** Dissolved

**Q.** And the “Notes (phase separation)” value [3, 16]?
**A.** No phase separation

**Q.** And the “Solubility After 24 hr” value [3, 16]?
**A.** Dissolved

**Q.** And the “Solubility After 96 hr” value [3, 16]?
**A.** Dissolved

**Q.** What about the “Notes (phase separation)” value [3, 17] of the same compound?
**A.** No phase separation

**Q.** And the “Solubility After 24 hr” value [3, 17]?
**A.** NOT Dissolved

**Q.** What about the “Solubility After 96 hr” value [3, 17] of the same compound?
**A.** Dissolved

**Q.** And the “Solubility After 24 hr” value ([3]; 200 mg/g in Soybean:Labrafil (2:1) at RT (about 22° C.))?
**A.** NOT Dissolved
